Reference: patent US9556164B2, “Salts of Dasatinib in crystalline form” (BASF SE, priority 2013, dated 2017)

Conditions: DVS at 25° C., humidity program 50% r.h. to 95% r.h. and back to 50% r.h.
Method: Dynamic vapor sorption: DVS is performed at 25° C. with an SPS11-100n “Sorptions Prüfsystem” of Projekt Messtechnik, D-89077 Ulm (Germany). About 25 mg of sample is put into an aluminum sample pan. Humidity program: 50% relative humidity (r.h.) for 2 hours, 50% r.h. to 95% r.h. (humidity change rate 5% per hour), 95% r.h. for 5 hours, 95% r.h. to 50% r.h. (humidity change rate 5% per hour), 50% r.h. for 2 hours.

For `Cc1nc(Nc2ncc(C(=O)Nc3c(C)cccc3Cl)s2)cc(N2CCN(CCO)CC2)n1.O=C1NS(=O)(=O)c2ccccc21` [Example 5, Dasatinib saccharinate (hydrate)], the “hygroscopicity by DVS” value was “not hygroscopic”.
